The text below walks through data of patent US20100137398A1, “USE OF HDAC INHIBITORS FOR THE TREATMENT OF GASTROINTESTINAL CANCERS” (NOVARTIS AG, priority 2007, published 2010).

Holding throughout (assay): Monolayer growth inhibition assay (MTT/MTS)
Format in all cases: cell-based

The test system of test [1] is C2Bbe-1 colon cancer cell line. The source says:
(§1) The MTT is a colorimetric assay to determine the cell proliferation rate. The yellow tetrazolium MTT (3-(4, 5-dimethylthiazolyl-2)-2, 5-diphenyltetrazolium bromide) is reduced, by metabolically active cells, in part by the action of dehydrogenase enzymes, to generate reducing equivalents such as NADH and NADPH. The resulting intracellular purple formazan can be solubilized and quantified by spectrophotometric means. The signals produced is directly proportional to the cell numbers. Describing the MTT assay in detail, experiments were done using six-point or 9 point drug titrations in multi-well tissue culture dishes, with outer rows left empty. Cells were suspended in complete media at densities of between 10^3 and 10^4 cell/ml, respectively, and added per well. The appropriate medium (200 μl) was then added. Twenty-four hours later, 10 μl of MTS solution, were added to one plates to determine the activity at the time of compound addition (T0). This plate was incubated at 37° for 4 hours and the optical density was measured on a Molecular Devices Thermomax at 490 nm using the Softmax program. The T0 plate served as a reference for initial activity at the beginning of the experiment.
(§2) Compound addition began 24 hours after seeding, the same time as the T0 determination. Serial dilutions at 4-fold 2-fold, 1-fold, 0.5-fold, 0.25-fold and 0.125-fold of previously determined IC50 values of each compound were made in a 96-deep well plate with the highest concentrations on the edge of the plate. Each of the six dilutions were added in triplicate and complete medium was added to the empty outer rows, without cells. The compounds were added to the plates singly or in combination with Compound III (LBH589). The plates were incubated at 37° C. for 72 hours from seeding. The MTS solution was added (as for the T0 plate) and read four hours later. In order to analyze the data, the average value of media alone (background) was subtracted from each experimental well and the triplicate values were averaged for each compound dilution. The following formulas were used to calculate percent growth.
(§3) If X>T0, % Growth=100×(X−T0)/(GC−T0))
(§4) If X<T0, % Growth=100×(X−T0)/T0)
(§5) T0=average value of T0 minus background
(§6) GC=average value of untreated cells (in triplicate) minus background X=average value, of compound treated cells (in triplicate) minus background
(§7) IC50 the concentration of LBH589 required to inhibit cell growth by 50% and LD50s the concentration required to reduce cell number (kill cells) to 50% the original innoculum were determined. The “% Growth” was plotted against compound concentration and used to calculate IC50s and LD50s, employing the user-defined spline function in Microsoft Excel.
(§8) Colon cancer cell lines were treated with DMSO vehicle control or varying concentrations of LBH589 for 3 days. Cell proliferation was measured on the day of cell plating and on the third day post-treatment. IC50 and LD50 values were calculated as described above.

Test [2] relates to HCT116 colon cancer cell line.
From the text: as §1, §2, §3, §4, §5, §6, §7, §8

Test [3] relates to SW948 colon cancer cell line.
From the text: as §1, §2, §3, §4, §5, §6, §7, §8

As a reminder, the IC50 is the concentration needed to halve the response being measured. With `Cc1[nH]c2ccccc2c1CCNCc1ccc(/C=C/C(=O)NO)cc1` [LBH589, N-hydroxy-3-[4-[[[2-(2-methyl-1H-indol-3-yl)ethyl]-amino]methyl]phenyl]-2E-2-propenamide], the “LD50” value in test [1] (C2Bbe-1, 3 days, concentration reducing cell number to 50% of original inoculum) is listed as 243.12 nM; in test [2] (HCT116, 3 days, concentration reducing cell number to 50% of original inoculum) it was 51.72 nM; in test [3] (SW948, 3 days, concentration reducing cell number to 50% of original inoculum), 34.92 nM. The half-maximal inhibitory concentration (IC50) in test [1] (Homo sapiens, C2BBe1, 72 h, C2Bbe-1, 3 days treatment) came out at 27.5 nM; in test [2] (Homo sapiens, HCT-116, 72 h, HCT116, 3 days treatment), 7.11 nM; in test [3] (Homo sapiens, 72 h, SW948, 3 days treatment), 5.06 nM.
